Laboratory results from paper PMC11022693, “Targeting C21orf58 is a Novel Treatment Strategy of Hepatocellular Carcinoma by Disrupting the Formation of JAK2/C21orf58/STAT3 Complex” (Advanced Science, 2024).

Molecular target: T1, C21orf58 (Homo sapiens, UniProt P58505)
T1 construct: human C21orf58 in pET-21a, expressed in E. coli Rosetta (DE3), Ni-NTA purified, lyophilized
Assay: 1H NMR of mixed ligand and purified protein
Assay type: binding
Details: deuterated water; mixed and incubated 30 min at room temperature; 600 MHz

T1 sequence (P58505 whole entry): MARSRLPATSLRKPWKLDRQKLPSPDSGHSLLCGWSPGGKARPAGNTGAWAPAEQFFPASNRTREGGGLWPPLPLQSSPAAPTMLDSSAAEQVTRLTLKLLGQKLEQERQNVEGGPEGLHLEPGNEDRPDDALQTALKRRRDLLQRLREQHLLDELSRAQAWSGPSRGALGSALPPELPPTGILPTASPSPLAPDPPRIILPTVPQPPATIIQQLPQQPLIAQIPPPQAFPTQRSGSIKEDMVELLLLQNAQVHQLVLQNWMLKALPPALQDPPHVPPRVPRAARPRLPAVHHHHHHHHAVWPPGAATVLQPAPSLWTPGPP

Compound: C=C(C)CNc1ccc(C(C)C(=O)O)cc1 (stereo not shown) [alminoprofen]
- 1H NMR of mixed ligand and purified protein: H Nuclear Magnetic Resonance Spectra suggested that alminoprofen could bind on the C21orf58 protein
